Experimental data reported in PMC11637378, “Optogenetic screening of MCT1 activity implicates a cluster of non-steroidal anti-inflammatory drugs (NSAIDs) as inhibitors of lactate transport” (PLOS ONE, 2024).
Values joined by “and” are separate entries in the source; they are usually repeats but may differ in a detail not shown here. Equal values may be shown once. Read-outs that look alike come from different tables or passages of the source.

How the values were obtained:
parent strain (SAWy518) [1] = test system: parent strain (SAWy518)
survivin [2] = settings: library annotation; cited from earlier work
survivin [3] = settings: NOTES column annotation; cited from earlier work
survivin [4] = settings: library annotation; cited from earlier work; remark: listed apart in the source
MCT1 = settings: cited from earlier work
cancer cell growth = settings: 10 μM, administered alone; cited from earlier work
tumor growth = settings: cited from earlier work
MCT4 [5] = settings: HAP1 cells, library annotation; cited from earlier work
MCT4 [6] = settings: HAP1 cells; NOTES column annotation; cited from earlier work
parent strain (SAWy518) [7] = test: microbe, parasite or virus in culture; parameters: species or system Saccharomyces cerevisiae SAWy518; Off-target growth counter-screen, OD600 as per cent of untreated wells, strain lacking MCT1; settings: 18.5 h; sheet Primary Screen - final;; off-target growth of parent strain, about 18 h
[8] = target: neurokinin 1 (NK1) receptor; settings: library annotation; cited from earlier work
[9] = target: neurokinin 1 (NK1) receptor; parameters: method as in not given; settings: library annotation; ref not given; cited from earlier work
[10] = target: neurokinin 1 (NK1) receptor; settings: library annotation; cited from earlier work; remark: listed apart in the source
SAWy710 (EV) = test: High throughput assay validation, empty vector (EV) control strain SAWy710, AZD versus DMSO; assay type: cell-based, Saccharomyces cerevisiae; settings: individual wells 1-16, listed as AZD
Δjen1 EV = test: Growth with lactate as sole carbon source, Δjen1 carrying empty vector (EV) control; assay type: cell-based, Saccharomyces cerevisiae
[11] = patients with advanced cancer; dose-limiting toxicity relating to retinopathy at higher concentrations; cited from earlier work
MCT1 (F360C) = MCT1 (F360C) (UniProt P36035+P53987, F360C); test: Growth with lactate as sole carbon source, by4741 Δjen1 expressing MCT1(F360C); settings: for growth curve reading, single replicate / growth curve reading, mean of 4 replicates: Δjen1 MCT1(F360C)
Experimental: (§1) Yeast was propagated, transformed, and assayed in synthetic complete media. Synthetic media was composed of 1.5 g Difco yeast nitrogen base without amino acids and ammonium sulfate, 5 g ammonium sulfate, 200 μM inositol, and 2 g amino acid powder mix per liter. For all studies using MCT1, uracil was excluded to maintain plasmid selection. The carbon source for most experiments was 2% glucose; however, for growth in alternative carbon sources lactate (0.5% v/v) or pyruvate (40 mM) was used instead with media pH adjustment to 5.0.
(§2) For growth in lactate or pyruvate as a sole carbon source by4741 and an equivalent strain with a JEN1 knockout was obtained from the nonessential gene deletion library [62].
(§3) Supplementary file pone.0312492.s005.tif: S5 Fig Growth of the optimal MCT1 fusion in lactate and sensitivity to AZD3965 administration. […] AZD3965 was added to the media at a concentration of 10 μM.

MCT1 (wildtype) = MCT1 (wildtype) (UniProt P36035+P53987); test: Growth with lactate as sole carbon source, by4741 Δjen1 expressing wild-type MCT1
MCT1 (wildtype), sequence (P36035+P53987 fused): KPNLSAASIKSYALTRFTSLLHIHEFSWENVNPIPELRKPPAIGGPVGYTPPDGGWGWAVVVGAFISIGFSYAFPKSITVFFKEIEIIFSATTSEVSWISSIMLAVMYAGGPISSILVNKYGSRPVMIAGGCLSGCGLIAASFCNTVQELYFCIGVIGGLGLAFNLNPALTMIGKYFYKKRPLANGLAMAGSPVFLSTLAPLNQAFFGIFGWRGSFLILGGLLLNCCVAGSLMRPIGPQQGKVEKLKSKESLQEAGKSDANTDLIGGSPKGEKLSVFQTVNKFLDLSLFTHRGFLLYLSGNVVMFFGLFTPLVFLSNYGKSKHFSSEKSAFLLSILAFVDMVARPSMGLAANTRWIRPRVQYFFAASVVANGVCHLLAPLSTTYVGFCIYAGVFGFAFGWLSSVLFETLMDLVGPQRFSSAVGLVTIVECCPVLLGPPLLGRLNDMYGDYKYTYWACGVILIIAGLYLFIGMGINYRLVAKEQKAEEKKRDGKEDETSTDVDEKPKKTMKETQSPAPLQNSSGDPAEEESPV
Experimental: as §1, §2, §3

MCT1 (F360C), sequence (P36035+P53987 fused P53987:F360C): as the sequence (P36035+P53987 fused) above, with F398C counted along it

Compound: YM155
- OffScreen_percentage (parent strain (SAWy518) [1]): 103.73 percentage
- Offscreen_18hr (parent strain (SAWy518) [1]): 0.8371
- Offscreen_24hr (parent strain (SAWy518) [1]): 0.9154
- Offscreen_42hr (parent strain (SAWy518) [1]): 0.9694
- Read_percentage (parent strain (SAWy518) [1]): 103.73
- IC50 (survivin [2]): 0.54 nM
- IC50 (survivin [3]): 0.54 nM
- IC50 (survivin [4]): 0.54 nM

Compound: CCOC(=O)Oc1c(OC)cc(C(=O)O[C@@H]2C[C@@H]3CN4CCc5c([nH]c6cc(OC)ccc56)[C@H]4C[C@@H]3[C@H](C(=O)OC)[C@H]2OC)cc1OC [Syrosingopine]
- OffScreen_percentage (parent strain (SAWy518) [1]): 92.2553 percentage
- Offscreen_18hr (parent strain (SAWy518) [1]): 0.7445
- Offscreen_24hr (parent strain (SAWy518) [1]): 0.7958
- Offscreen_42hr (parent strain (SAWy518) [1]): 0.9268
- Read_percentage (parent strain (SAWy518) [1]): 92.2553
- IC50 (MCT1; HAP1 cells, library annotation, read-out: IC50 MCT1): 2500 nM
- in vitro cancer cell growth (cancer cell growth): inhibit in vitro cancer cell growth
- tumor growth in in vivo cancer models (tumor growth; alone versus paired with metformin): only effective in reducing tumor growth when paired with the mitochondrial oxidative phosphorylation inhibitor metformin
- dose required to inhibit tumor growth in mice (tumor growth; mice): 7.5 mg/kg
- IC50 (MCT4 [5]): 40 nM
- IC50 (MCT4 [6]): 40 nM
- viability at 10 µM (parent strain (SAWy518) [7]): 92.3%

Compound: Cc1ccccc1-c1cc(N2CCN(C)CC2)ncc1N(C)C(=O)C(C)(C)c1cc(C(F)(F)F)cc(C(F)(F)F)c1 [Netupitant]
- OffScreen_percentage (parent strain (SAWy518) [1]): 103.271 percentage
- Offscreen_18hr (parent strain (SAWy518) [1]): 0.8334
- Offscreen_24hr (parent strain (SAWy518) [1]): 0.9137
- Offscreen_42hr (parent strain (SAWy518) [1]): 0.9839
- Read_percentage (parent strain (SAWy518) [1]): 103.271 percentage
- Ki [8]: 0.95 nM
- Ki [9]: 0.95 nM
- Ki [10]: 0.95 nM
- viability at 10 µM (parent strain (SAWy518) [7]): 103%

Compound: Cc1[nH]nc(C(F)(F)F)c1Cc1sc2c(c1C(=O)N1C[C@](C)(O)CO1)c(=O)n(C)c(=O)n2C(C)C [AZD3965]
- OD600 (SAWy710 (EV); Condition non, Replicate1, EV strain SAWy710, 10 µM AZD): 0.1411 and 0.1378 and 0.134 and 0.1369 and 0.1383 and 0.1317 and 0.135 and 0.1363 and 0.1403 and 0.1392 and 0.1365 and 0.1389 and 0.1394 and 0.149
- OD600 (SAWy710 (EV); Condition non, Replicate2, EV strain SAWy710, 10 µM AZD): 0.1384 and 0.1406 and 0.1366 and 0.135 and 0.1021 and 0.1315 and 0.1407 and 0.1329 and 0.1336 and 0.1393 and 0.1343 and 0.134 and 0.138 and 0.1378 and 0.1431
- OD600 (SAWy710 (EV); Condition perm, Replicate1, EV strain SAWy710, 10 µM AZD): 0.7718 and 0.7777 and 0.7776 and 0.7734 and 0.7269 and 0.7398 and 0.7671 and 0.7655 and 0.7645 and 0.774 and 0.768 and 0.7629 and 0.759 and 0.7698 and 0.7556 and 0.7591
- OD600 (SAWy710 (EV); Condition perm, Replicate2, EV strain SAWy710, 10 µM AZD): 0.1774 and 0.1728 and 0.1654 and 0.1606 and 0.1374 and 0.1596 and 0.1712 and 0.1673 and 0.1713 and 0.168 and 0.1743 and 0.17 and 0.1727 and 0.1704 and 0.1842
- growth curve reading, single replicate (Δjen1 EV; T1, time 19): 0.1091 and 0.1160 and 0.1215 and 0.1310
- growth curve reading, single replicate (Δjen1 EV; T2, time 21): 0.1392 and 0.1432 and 0.1501
- growth curve reading, single replicate (Δjen1 EV; T3, time 25): 0.1257 and 0.1403 and 0.1504
- growth curve reading, single replicate (Δjen1 EV; T4, time 27.5): 0.1322 and 0.1452 and 0.1564 and 0.1709
- growth curve reading, single replicate (Δjen1 EV; T5, time 43): 0.1444 and 0.1533 and 0.1681 and 0.1884
- growth curve reading, single replicate (Δjen1 EV; T6, time 45.5): 0.1453 and 0.1535 and 0.1657 and 0.1862
- growth curve reading, single replicate (Δjen1 EV; T7, time 48): 0.1464 and 0.1540 and 0.1668 and 0.1877
- growth curve reading, mean of 4 replicates (Δjen1 EV; time 19): 0.1194
- growth curve reading, mean of 4 replicates (Δjen1 EV; time 21): 0.1435
- growth curve reading, mean of 4 replicates (Δjen1 EV; time 25): 0.1449
- growth curve reading, mean of 4 replicates (Δjen1 EV; time 27.5): 0.1512
- growth curve reading, mean of 4 replicates (Δjen1 EV; time 43): 0.1636
- growth curve reading, mean of 4 replicates (Δjen1 EV; time 45.5): 0.1627
- growth curve reading, mean of 4 replicates (Δjen1 EV; time 48): 0.1637
- IC50 (MCT1; read-out: previously reported IC50 value): 5.12 nM
- tolerability in phase-1 clinical trial [11]: relatively well tolerated
- growth in media with lactate as the sole carbon source (MCT1 (F360C); MCT1 F360C, AZD3965 10 μM, 0.5% lactate (S5 Fig)): inhibited growth
- growth curve reading, single replicate (MCT1 (F360C); T0, time 0): 0.0403
- growth curve reading, single replicate (MCT1 (F360C); T1, time 19): 0.1093 and 0.1204 and 0.1196 and 0.1290
- growth curve reading, single replicate (MCT1 (F360C); T2, time 21): 0.1288 and 0.1364 and 0.1335
- growth curve reading, single replicate (MCT1 (F360C); T3, time 25): 0.1550 and 0.1804 and 0.1853 and 0.2001
- growth curve reading, single replicate (MCT1 (F360C); T4, time 27.5): 0.1660 and 0.1913 and 0.2008 and 0.2152
- growth curve reading, single replicate (MCT1 (F360C); T5, time 43): 0.1991 and 0.2285 and 0.2378 and 0.2578
- growth curve reading, single replicate (MCT1 (F360C); T6, time 45.5): 0.2030 and 0.2318 and 0.2431 and 0.2629
- growth curve reading, single replicate (MCT1 (F360C); T7, time 48): 0.2036 and 0.2334 and 0.2458 and 0.2644
- growth curve reading, mean of 4 replicates (MCT1 (F360C); time 0): 0.0403
- growth curve reading, mean of 4 replicates (MCT1 (F360C); time 19): 0.1196
- growth curve reading, mean of 4 replicates (MCT1 (F360C); time 21): 0.1338
- growth curve reading, mean of 4 replicates (MCT1 (F360C); time 25): 0.1802
- growth curve reading, mean of 4 replicates (MCT1 (F360C); time 27.5): 0.1933
- growth curve reading, mean of 4 replicates (MCT1 (F360C); time 43): 0.2308
- growth curve reading, mean of 4 replicates (MCT1 (F360C); time 45.5): 0.2352
- growth curve reading, mean of 4 replicates (MCT1 (F360C); time 48): 0.2368
- growth in media with lactate as the sole carbon source (MCT1 (wildtype); wildtype MCT1, AZD3965 10 μM, 0.5% lactate (S5 Fig)): inhibited growth
- growth curve reading, single replicate (MCT1 (wildtype); Δjen1 MCT1, T0, time 0): 0.0402
- growth curve reading, single replicate (MCT1 (wildtype); Δjen1 MCT1, T1, time 19): 0.1316 and 0.1252 and 0.1281 and 0.1266
- growth curve reading, single replicate (MCT1 (wildtype); Δjen1 MCT1, T2, time 21): 0.1442 and 0.1394 and 0.1417 and 0.1396
- growth curve reading, single replicate (MCT1 (wildtype); Δjen1 MCT1, T3, time 25): 0.1656 and 0.1622 and 0.1633 and 0.1608
- growth curve reading, single replicate (MCT1 (wildtype); Δjen1 MCT1, T4, time 27.5): 0.1778 and 0.1729 and 0.1762
- growth curve reading, single replicate (MCT1 (wildtype); Δjen1 MCT1, T5, time 43): 0.2083 and 0.2030 and 0.2026 and 0.2041
- growth curve reading, single replicate (MCT1 (wildtype); Δjen1 MCT1, T6, time 45.5): 0.2171 and 0.2098 and 0.2095 and 0.2126
- growth curve reading, single replicate (MCT1 (wildtype); Δjen1 MCT1, T7, time 48): 0.2154 and 0.2089 and 0.2128 and 0.2107
- growth curve reading, mean of 4 replicates (MCT1 (wildtype); Δjen1 MCT1, time 0): 0.0402
- growth curve reading, mean of 4 replicates (MCT1 (wildtype); Δjen1 MCT1, time 19): 0.1279
- growth curve reading, mean of 4 replicates (MCT1 (wildtype); Δjen1 MCT1, time 21): 0.1412
- growth curve reading, mean of 4 replicates (MCT1 (wildtype); Δjen1 MCT1, time 25): 0.1630
- growth curve reading, mean of 4 replicates (MCT1 (wildtype); Δjen1 MCT1, time 27.5): 0.1750
- growth curve reading, mean of 4 replicates (MCT1 (wildtype); Δjen1 MCT1, time 43): 0.2045
- growth curve reading, mean of 4 replicates (MCT1 (wildtype); Δjen1 MCT1, time 45.5): 0.2122
- growth curve reading, mean of 4 replicates (MCT1 (wildtype); Δjen1 MCT1, time 48): 0.2120
